Where two headings read alike, the source gives them in different places.
System: splenocytes from naïve C57BI/6 mice
Assay type: cell-based
Conditions: naïve splenocytes plus RMA-S pulsed with 10 uM peptide, IL-2 added after 4 days

KAVYNFATM [non-nitrated LCMV gp33 peptide]
outgrowth of CD8^+ T cells: not
outgrowth of CD8^+ T cells (listed as conventional gp33-41 peptide): not observed

From patent US20040202647A1, “Compositions and methods related to nitrotyrosine - containing compounds as antigenic agents” (priority 2002, published 2004)
